This passage reports IC50 results from US20240300980A1, “HETEROCYCLIC COMPOUNDS AS KRAS INHIBITOR, AND PREPARATION THEREFOR AND USE THEREOF IN TREATMENT” (SHANGHAI KECHOW PHARMA, INC., priority 2021, published 2024).

What is called IC50 is the midpoint of a concentration-inhibition curve.

The test system of the first experiment is AGS cells (KRAS^G12D). The experiment can be described thus: Detection of cell proliferation in vitro by MTT/MTS method (cell activity experiment). The note with it: AGS cells; MTT/MTS; 3 days of drug treatment; read-out: AGS IC50. The experiment is classed as cell-based. The method, then: The above cells were cultured in a complete medium containing 10% fetal bovine serum, 100 IU/mL penicillin and 100 jag/mL streptomycin, in the aseptic incubator with 95% relative humidity and 5% CO2 concentration.
2. Reagents: F12K, D-PBS, FBS, Penicillin Streptomycin, Tryple, MTT (5 mg/mL)
Appropriate amount of compound powder was weighed in a 1.5 mL centrifuge tube, then the corresponding volume of dimethyl sulfoxide (DMSO) was added to form a 20 mM reserve solution. The solution was packed separately and stored in a refrigerator at −20° C. away from light.
The cells were inoculated in a cell culture bottle, added an appropriate amount of complete medium, and cultured in a sterile incubator. When the degree of cell confluence reached more than 80%, subculture was carried out.
The adherent cells in logarithmic growth phase were digested by trypsin or the suspension cells were collected by centrifugation and counted. 90 μL cell suspension was inoculated into 96-well plate according to the cell inoculation density of 1000 cells per well, and 10 μL of 10-fold final concentration compound diluted by culture medium was added 24 hours later. Compared with the hole with the same volume of 5% DMSO as control, the final concentration of DMSO was 0.5%. After 3 days of drug treatment, the cell viability was detected by MTT. The specific methods are as follows: 10 μL MTT per well was added into the incubator for 4 hours, the supernatant was discarded and 150 μL DMSO was added to dissolve the crystal methylazan, and the absorbance of 490 nm was detected by enzyme labeling instrument, or 10 μL MITS per well was added to the incubator for 4 hours, and […] absorbance was detected directly by enzyme labeling instrument. GraphPad Prism 6 software makes dose-effect curve and calculates IC50.
Consider `C#Cc1c(F)ccc2cc(O)cc(-c3ccc4c(N5C[C@H]6CC[C@@H](C5)[C@@H]6F)nc(OC[C@@]56CCCN5C[C@H](F)C6)nc4c3F)c12` [Example 123, 5-ethynyl-6-fluoro-4-(8-fluoro-4-((1R,5S, 8R)-8-fluoro-3-azabicyclo[3.2.1]octan-3-yl)-2-(((2R,7aS)-2-fluorotetrahydro-1H-pyrrolizin-7a(5H)-yl)methoxy)quinazolin-7-yl)naphthalen-2-ol], for which the IC50 was over 2500 nM.

Staying with this experiment, now noted: Homo sapiens, AGS, 72 h, AGS cells; MTT/MTS; 3 days of drug treatment; read-out: AGS IC50.
Consider `Oc1cc2c(c(-c3ccc4c(N5C[C@H]6CC[C@@H](C5)N6)nc(OC[C@@]56CCCN5C[C@H](F)C6)nc4c3F)c1)C1CC1CC2` (stereo partly drawn) [Example 295, 7-(4-((1R,5S)-3,8-diazabicyclo[3.2.1]octan-3-yl)-8-fluoro-2-(((2R,7aS)-2-fluorotetrahydro-1H-pyrrolizin-7a(5H)-yl)methoxy)quinazolin-7-yl)-1a,2,3,7b-tetrahydro-1H-cyclopropa[a]naphthalen-5-ol], for which the IC50 came to 183 nM. In the case of `Oc1cc(-c2ncc3c(C4C[C@H]5CC[C@@H](C4)N5)nc(OC[C@@]45CCCN4C[C@H](F)C5)nc3c2F)c2c(F)cccc2c1` (stereo partly drawn) [Example 82, 4-(4-((1R,5S)-8-azabicyclo[3.2.1]octan-3-yl)-8-fluoro-2-(((2R,7aS)-2-fluorotetrahydro-1H-pyrrolizin-7a(5H)-yl)methoxy)pyrido [4,3-d]pyrimidin-7-yl)-5-fluoronaphthalen-2-ol], the 50% inhibitory concentration (IC50) is over 2500 nM. On to `O=S1(=O)[C@@H]2CC[C@H]1CN(c1nc(OC[C@@]34CCCN3C[C@H](F)C4)nc3c(F)c(-c4cc(O)cc5cccc(F)c45)ccc13)C2` [Example 169, (1R,5S)-3-(8-fluoro-7-(8-fluoro-3-hydroxynaphthalen-1-yl)-2-(((2R,7aS)-2-fluorotetrahydro-1H-pyrrolizin-7a(5H)-yl)methoxy)quinazolin-4-yl)-8-thia-3-azabicyclo[3.2.1]octane 8,8-dioxide], for which the IC50 was over 2500 nM. Same read-out and setting: to `C#Cc1cccc2cc(O)cc(-c3ncc4c(N5CC6CCCC(C5)N6)nc(OC[C@@]56CCCN5C[C@H](F)C6)nc4c3F)c12` [Example 44, 4-(4-(3,9-diazabicyclo [3.3.1]nonan-3-yl)-8-fluoro-2-(((2R,7aS)-2-fluorotetrahydro-1H-pyrrolizin-7a(5H)-yl)methoxy)pyrido[4,3-d]pyrimidin-7-yl)-5-ethynylnaphthalen-2-ol] belongs 47 nM; to `CC1CCc2cc(O)cc(-c3c(Cl)cc4c(N5C[C@H]6CC[C@@H](C5)N6)nc(OC[C@@]56CCCN5C[C@H](F)C6)nc4c3F)c21` (stereo partly drawn) [Example 304, 7-(4-((1R,5S)-3,8-diazabicyclo[3.2.1]octan-3-yl)-6-chloro-8-fluoro-2-(((2R,7aS)-2-fluorotetrahydro-1H-pyrrolizin-7a(5H)-yl)methoxy)quinazolin-7-yl)-1-methyl-2,3-dihydro-1H-inden-5-ol], 35 nM; to `C#Cc1c(F)ccc2cc(O)cc(-c3ncc4c(N5C[C@H]6CC[C@@H](C5)O6)nc(OC[C@@]56CCCN5C[C@H](F)C6)nc4c3F)c12` [Example 12, 4-(4-((1R,5S)-8-oxa-3-azabicyclo[3.2.1]octan-3-yl)-8-fluoro-2-(((2R,7aS)-2-fluorotetrahydro-1H-pyrrolizin-7a(5H)-yl)methoxy)pyrido[4,3-d]pyrimidin-7-yl)-5-ethynyl-6-fluoronaphthalen-2-ol], 316 nM.

Take `CC1(C)CCc2cc(O)cc(-c3ncc4c(N5C[C@H]6CC[C@@H](C5)N6)nc(OC[C@@]56CCCN5C[C@H](F)C6)nc4c3F)c21` [Example 299, 7-(4-((1R,5S)-3,8-diazabicyclo[3.2.1]octan-3-yl)-8-fluoro-2-(((2R,7aS)-2-fluorotetrahydro-1H-pyrrolizin-7a(5H)-yl)methoxy)pyrido[4,3-d]pyrimidin-7-yl)-1,1-dimethyl-2,3-dihydro-1H-inden-5-ol]: the IC50 was 945 nM. `C#Cc1c(F)ccc2cc(O)cc(-c3ccc4c(N5C[C@H]6CC[C@@H](C5)N6)nc(OC[C@@]56CCCN5C[C@H](F)C6)nc4c3F)c12` [Example 91, 4-(4-((1R,5S)-3,8-diazabicyclo[3.2.1]octan-3-yl)-8-fluoro-2-(((2R,7aS)-2-fluorotetrahydro-1H-pyrrolizin-7a(5H)-yl)methoxy)quinazolin-7-yl)-5-ethynyl-6-fluoronaphthalen-2-ol]: the IC50 turned out to be 1.3 nM. Still for that read-out and setting: to `CC1CCCc2cc(O)cc(-c3c(F)c4nc(OC[C@@]56CCCN5C[C@H](F)C6)nc(N5C[C@H]6CC[C@@H](C5)N6)c4c4nccn34)c21` (stereo partly drawn) [Example 414, 4-(10-((1R,5S)-3,8-diazabicyclo[3.2.1]octan-3-yl)-6-fluoro-8-(((2R,7aS)-2-fluorotetrahydro-1H-pyrrolizin-7a(5H)-yl)methoxy)imidazo[1′,2′:1,2]pyrido[4,3-d]pyrimidin-5-yl)-5-methyl-5,6,7,8-tetrahydronaphthalen-2-ol] belongs 45 nM. Still for that read-out and setting: to `Oc1cc2c(c(-c3ncc4c(N5C[C@H]6CC[C@@H](C5)N6)nc(OC[C@@]56CCCN5C[C@H](F)C6)nc4c3F)c1)C(C(F)F)CCC2` (stereo partly drawn) [Example 261, 4-(4-((1R,5S)-3,8-diazabicyclo[3.2.1]octan-3-yl)-8-fluoro-2-(((2R,7aS)-2-fluorotetrahydro-1H-pyrrolizin-7a(5H)-yl)methoxy)pyrido[4,3-d]pyrimidin-7-yl)-5-(difluoromethyl)-5,6,7,8-tetrahydronaphthalen-2-ol] belongs 1930 nM; to `C#Cc1c(F)ccc2cc(O)cc(-c3ccc4c(N5CCC6(CCCS6)CC5)nc(OC[C@@]56CCCN5C[C@H](F)C6)nc4c3F)c12` [Example 109, 5-ethynyl-6-fluoro-4-(8-fluoro-2-(((2R,7aS)-2-fluorotetrahydro-1H-pyrrolizin-7a(5H)-yl)methoxy)-4-(1-thia-8-azaspiro[4.5]decan-8-yl)quinazolin-7-yl)naphthalen-2-ol], over 2500 nM. As for `CCc1coc2cc(O)cc(-c3ncc4c(N5C[C@H]6CC[C@@H](C5)N6)nc(OC[C@@]56CCCN5C[C@H](F)C6)nc4c3F)c12` [Example 244, 4-(4-((1R,5S)-3,8-diazabicyclo[3.2.1]octan-3-yl)-8-fluoro-2-(((2R,7aS)-2-fluorotetrahydro-1H-pyrrolizin-7a(5H)-yl)methoxy)pyrido[4,3-d]pyrimidin-7-yl)-3-ethylbenzofuran-6-ol], the 50% inhibitory concentration (IC50) came out at 59 nM. With `C#Cc1cccc2cc(O)cc(-c3ccc4c(N5CC6CCCC(C5)N6)nc(OC[C@@]56CCCN5C[C@H](F)C6)nc4c3F)c12` [Example 106, 4-(4-(3,9-diazabicyclo [3.3.1]nonan-3-yl)-8-fluoro-2-(((2R,7aS)-2-fluorotetrahydro-1H-pyrrolizin-7a(5H)-yl)methoxy)quinazolin-7-yl)-5-ethynylnaphthalen-2-ol], the IC50 is 120 nM.

For `CCc1cccc2cc(O)cc(-c3ccc4c(N5C[C@H]6CC[C@@H](C5)N6)nc(OC[C@@]56CCCN5C[C@H](F)C6)nc4c3F)c12` [Example 93, 4-(4-((1R,5S)-3,8-diazabicyclo[3.2.1]octan-3-yl)-8-fluoro-2-(((2R,7aS)-2-fluorotetrahydro-1H-pyrrolizin-7a(5H)-yl)methoxy)quinazolin-7-yl)-5-ethylnaphthalen-2-ol], the IC50 came out at 10.1 nM. On the same count and under the same terms, to `C[C@@H]1CCCc2cc(O)cc(-c3ncc4c(N5CC6CCC(C5)N6)nc(OC[C@@]56CCCN5C[C@H](F)C6)nc4c3F)c21` (single isomer, unassigned) [Example 225, (R)-4-(4-((1R,5S)-3,8-diazabicyclo[3.2.1]octan-3-yl)-8-fluoro-2-(((2R,7aS)-2-fluorotetrahydro-1H-pyrrolizin-7a(5H)-yl)methoxy)pyrido[4,3-d]pyrimidin-7-yl)-5-methyl-5,6,7,8-tetrahydronaphthalen-2-ol or (S)-4-(4-((1R,5S)-3,8-diazabicyclo[3.2.1]octan-3-yl)-8-fluoro-2-(((2R,7aS)-2-fluorotetrahydro-1H-pyrrolizin-7a(5H)-yl)methoxy)pyrido[4,3-d]pyrimidin-7-yl)-5-methyl-5,6,7,8-tetrahydronaphthalen-2-ol] belongs 668 nM. Consider `Oc1cc(-c2ncc3c(N4C[C@H]5CC[C@@H](C4)N5)nc(OCC4(CN5CCCC5)CC4)nc3c2F)c2c(F)c(F)ccc2c1` [Example 5, 4-(4-((1R,5S)-3,8-diazabicyclo[3.2.1]octan-3-yl)-8-fluoro-2-((1-(pyrrolidin-1-ylmethyl)cyclopropyl)methoxy)pyrido[4,3-d]pyrimidin-7-yl)-5,6-difluoronaphthalen-2-ol], for which the IC50 turned out to be 3.8 nM. In the case of `CCc1c(F)ccc2cc(O)cc(-c3ncc4c(N5C[C@H]6CC[C@@H](C5)C6(F)F)nc(OC[C@@]56CCCN5C[C@H](F)C6)nc4c3F)c12` [Example 31, 4-(4-((1R,5S)-8,8-difluoro-3-azabicyclo [3.2.1]octan-3-yl)-8-fluoro-2-(((2R,7aS)-2-fluorotetrahydro-1H-pyrrolizin-7a(5H)-yl)methoxy)pyrido[4,3-d]pyrimidin-7-yl)-5-ethyl-6-fluoronaphthalen-2-ol], the 50% inhibitory concentration (IC50) is over 2500 nM.
